# In patent US20250313548A1 (Actio Biosciences, Inc., priority 2023, published 2025):
# Target: human, KCNT1 (Homo sapiens (Human), UniProt Q5JUK3)
# Assay: FLIPR Tl/K Flux Assay
# Assay type: cell-based
# Details: HEK293 cells stably expressing human KCNT1; Tl+ flux stimulated with EC80 of agonist Loxapine
# Procedure, shortened: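 HEK293 cells stably expressing human KCNT1 were loaded with FLIPR potassium dye in HEPES/HBSS pH 7.4 with 5 mM probenecid, 1 h at 25 °C, then given test compound for 30 min at 25 °C. Tl+ flux was triggered with chloride-free buffer containing Tl+ and EC80 loxapine and read 160 s. IC50 came from Hill fits of % inhibition.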
# Sequence of human, KCNT1 (Q5JUK3 whole entry): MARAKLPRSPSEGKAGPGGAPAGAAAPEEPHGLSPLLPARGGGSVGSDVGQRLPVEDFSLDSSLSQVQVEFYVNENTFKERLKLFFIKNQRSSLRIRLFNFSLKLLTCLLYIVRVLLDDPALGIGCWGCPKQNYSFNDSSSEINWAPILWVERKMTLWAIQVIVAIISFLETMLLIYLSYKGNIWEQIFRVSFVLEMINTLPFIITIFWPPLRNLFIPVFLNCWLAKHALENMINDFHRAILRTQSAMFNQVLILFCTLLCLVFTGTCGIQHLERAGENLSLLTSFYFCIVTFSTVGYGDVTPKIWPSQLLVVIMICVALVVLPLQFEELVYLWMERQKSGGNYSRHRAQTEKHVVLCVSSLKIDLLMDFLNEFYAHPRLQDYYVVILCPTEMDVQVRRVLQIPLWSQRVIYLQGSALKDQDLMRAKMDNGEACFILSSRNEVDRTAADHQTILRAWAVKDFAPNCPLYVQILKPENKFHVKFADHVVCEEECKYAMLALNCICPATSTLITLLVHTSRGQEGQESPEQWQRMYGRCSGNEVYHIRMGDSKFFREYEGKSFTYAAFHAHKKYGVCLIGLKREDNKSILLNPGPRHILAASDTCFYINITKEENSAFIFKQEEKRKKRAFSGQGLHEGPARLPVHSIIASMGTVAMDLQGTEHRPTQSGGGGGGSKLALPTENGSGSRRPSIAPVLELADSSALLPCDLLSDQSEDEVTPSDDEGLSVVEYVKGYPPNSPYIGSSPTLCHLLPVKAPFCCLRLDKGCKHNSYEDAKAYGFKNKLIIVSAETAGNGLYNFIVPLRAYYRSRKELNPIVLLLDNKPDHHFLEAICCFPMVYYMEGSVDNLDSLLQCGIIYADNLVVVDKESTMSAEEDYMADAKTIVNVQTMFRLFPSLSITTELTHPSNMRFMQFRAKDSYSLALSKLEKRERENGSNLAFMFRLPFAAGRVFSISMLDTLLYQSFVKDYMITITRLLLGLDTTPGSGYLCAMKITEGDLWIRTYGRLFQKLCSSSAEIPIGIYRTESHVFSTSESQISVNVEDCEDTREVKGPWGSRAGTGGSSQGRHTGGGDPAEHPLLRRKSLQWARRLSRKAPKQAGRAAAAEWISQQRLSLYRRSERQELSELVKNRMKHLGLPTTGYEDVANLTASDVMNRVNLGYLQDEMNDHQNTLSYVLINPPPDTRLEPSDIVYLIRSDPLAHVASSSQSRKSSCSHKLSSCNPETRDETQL
row,Structure (SMILES),IC50
1,"CC(F)(F)c1cc(-c2nc3c(o2)CCC[C@H]3NC(=O)c2cccc(F)c2)ccn1 [Compound I-508b, (R)—N-(2-(2-(1,1-difluoroethyl)pyridin-4-yl)-4,5,6,7-tetrahydrobenzo[d]oxazol-4-yl)-3-fluorobenzamide]",> 1000 nM
2,O=C(N[C@@H]1CCCc2nc(-c3ccnc(C4CC4)c3)oc21)c1cncc(C(F)(F)F)n1 [Compound I-509b],> 1000 nM
3,O=C(N[C@@H]1CCCc2nc(-c3ccnc(C(F)(F)F)c3)oc21)c1cncc(C(F)(F)F)n1 [Compound I-510b],> 1000 nM
4,O=C(N[C@@H]1CCCc2nc(-c3cc(C4CC4)ncc3F)oc21)c1cncc(C(F)(F)F)n1 [Compound I-511b],> 1000 nM
5,COc1cc(-c2nc3c(o2)[C@H](NC(=O)c2cncc(C(F)(F)F)n2)CCC3)ccn1 [Compound I-512b],> 1000 nM
6,COc1cc(-c2nc3c(o2)[C@H](NC(=O)c2cncc(C(F)(F)F)n2)CCC3)c(Cl)cn1 [Compound I-513b],> 1000 nM
7,COc1cc(-c2cc3n(n2)CCCC[C@H]3NC(=O)c2cc(F)cc(C#N)c2)c(F)cn1 [Compound I-516b],500 to 1000 nM
8,COc1cc(C(=O)N[C@@H]2CCCCn3nc(-c4cc(C(F)(F)F)ncc4F)cc32)ccn1 [Compound I-517b],500 to 1000 nM
9,"CC12CC(C(=O)N[C@H]3CCn4nc(-c5cc(C(F)(F)F)ncc5F)cc43)(C1)C2 [Compound I-524a, (S)-N-(2-(5-Fluoro-2-(trifluoromethyl)pyridin-4-yl)-5,6-dihydro-4H-pyrrolo[1,2-b]pyrazol-4-yl)-3-methylbicyclo[1.1.1]pentane-1-carboxamide]",< 250 nM
10,"COC12CC(C(=O)N[C@H]3CCn4nc(-c5cc(C(F)(F)F)ncc5F)cc43)(C1)C2 [Compound I-525a, (S)-N-(2-(5-Fluoro-2-(trifluoromethyl)pyridin-4-yl)-5,6-dihydro-4H-pyrrolo[1,2-b]pyrazol-4-yl)-3-methoxybicyclo[1.1.1]pentane-1-carboxamide]",< 250 nM
11,"CC(F)(F)C12CC(C(=O)N[C@H]3CCn4nc(-c5cc(C(F)(F)F)ncc5F)cc43)(C1)C2 [Compound I-526a, (S)-3-(1,1-Difluoroethyl)-N-(2-(5-fluoro-2-(trifluoromethyl)pyridin-4-yl)-5,6-dihydro-4H-pyrrolo[1,2-b]pyrazol-4-yl)bicyclo[1.1.1]pentane-1-carboxamide]",< 250 nM
12,"O=C(N[C@H]1CCn2nc(-c3cc(C(F)(F)F)ncc3F)cc21)C12CC(C(F)F)(C1)C2 [Compound I-527a, (S)-3-(Difluoromethyl)-N-(2-(5-fluoro-2-(trifluoromethyl)pyridin-4-yl)-5,6-dihydro-4H-pyrrolo[1,2-b]pyrazol-4-yl)bicyclo[1.1.1]pentane-1-carboxamide]",< 250 nM
13,"CC(F)(F)c1cc(C(=O)N[C@H]2CCn3nc(-c4ccnc(C(F)(F)F)c4)cc32)ccn1 [Compound I-528a, (S)-2-(1,1-Difluoroethyl)-N-(2-(2-(trifluoromethyl)pyridin-4-yl)-5,6-dihydro-4H-pyrrolo[1,2-b]pyrazol-4-yl)isonicotinamide]",< 250 nM
14,"O=C(N[C@H]1CCCn2nc(-c3ccnc(C(F)(F)F)c3)cc21)c1cnn(C(F)(F)F)c1C(F)(F)F [Compound I-529a, (S)-1,5-bis(trifluoromethyl)-N-(2-(2-(trifluoromethyl)pyridin-4-yl)-4,5,6,7-tetrahydropyrazolo[1,5-a]pyridin-4-yl)-1H-pyrazole-4-carboxamide]",< 250 nM
15,"O=C(N[C@H]1CCCc2oc(-c3ccnc(C4CC4)c3)nc21)c1cnn(C(F)(F)F)c1C(F)(F)F [Compound I-530a, (S)—N-(2-(2-cyclopropylpyridin-4-yl)-4,5,6,7-tetrahydrobenzo[d]oxazol-4-yl)-1,5-bis(trifluoromethyl)-1H-pyrazole-4-carboxamide]",< 250 nM
16,"O=C(N[C@H]1CCCc2oc(-c3ccnc(C(F)(F)F)c3)nc21)c1cnn(C(F)(F)F)c1C(F)(F)F [Compound I-531a, (S)-1,5-bis(trifluoromethyl)-N-(2-(2-(trifluoromethyl)pyridin-4-yl)-4,5,6,7-tetrahydrobenzo[d]oxazol-4-yl)-1H-pyrazole-4-carboxamide]",< 250 nM
17,"O=C(N[C@H]1CCn2nc(-c3ccnc(C(F)(F)F)c3)cc21)c1cnn(C(F)(F)F)c1C(F)(F)F [Compound I-532a, (S)-1,5-bis(trifluoromethyl)-N-(2-(2-(trifluoromethyl)pyridin-4-yl)-5,6-dihydro-4H-pyrrolo[1,2-b]pyrazol-4-yl)-1H-pyrazole-4-carboxamide]",< 250 nM

# Other lines, results leading:
row,IC50,Structure (SMILES)
1,< 250 nM,"O=C(N[C@H]1CCCc2oc(-c3ccnc(C(F)(F)F)c3)nc21)C12CC(C(F)(F)F)(C1)C2 [Compound I-507a, (S)-3-(Trifluoromethyl)-N-(2-(2-(trifluoromethyl)pyridin-4-yl)-4,5,6,7-tetrahydrobenzo[d]oxazol-4-yl)bicyclo[1.1.1]pentane-1-carboxamide]"
2,< 250 nM,"CC(F)(F)c1cc(-c2nc3c(o2)CCC[C@@H]3NC(=O)c2cccc(F)c2)ccn1 [Compound I-508a, (S)—N-(2-(2-(1,1-difluoroethyl)pyridin-4-yl)-4,5,6,7-tetrahydrobenzo[d]oxazol-4-yl)-3-fluorobenzamide]"
3,< 250 nM,"Cn1nc(C(F)(F)F)cc1C(=O)N[C@H]1CCCc2nc(-c3cc(C(F)(F)F)ncc3F)oc21 [Compound I-514a, (S)—N-(2-(5-Fluoro-2-(trifluoromethyl)pyridin-4-yl)-4,5,6,7-tetrahydrobenzo[d]oxazol-7-yl)-1-methyl-3-(trifluoromethyl)-1H-pyrazole-5-carboxamide]"
4,< 250 nM,O=C(N[C@H]1CCCc2nc(-c3ccnc(C(F)(F)F)c3)oc21)C12CC(C(F)(F)F)(C1)C2 [Compound I-515a]
5,< 250 nM,"O=C(N[C@H]1CCCc2oc(-c3ccnc(C4CC4)c3)nc21)c1cn(C(F)(F)F)nc1C(F)(F)F [Compound I-519a, (S)—N-(2-(2-cyclopropylpyridin-4-yl)-4,5,6,7-tetrahydrobenzo[d]oxazol-4-yl)-1,3-bis(trifluoromethyl)-1H-pyrazole-4-carboxamide]"
6,< 250 nM,"O=C(N[C@H]1CCCc2oc(-c3ccnc(C(F)(F)F)c3)nc21)c1cn(C(F)(F)F)nc1C(F)(F)F [Compound I-520a, (S)-1,3-bis(trifluoromethyl)-N-(2-(2-(trifluoromethyl)pyridin-4-yl)-4,5,6,7-tetrahydrobenzo[d]oxazol-4-yl)-1H-pyrazole-4-carboxamide]"
7,< 250 nM,"O=C(N[C@H]1CCn2nc(-c3ccnc(C(F)(F)F)c3)cc21)c1cn(C(F)(F)F)nc1C(F)(F)F [Compound I-521a, (S)-1,3-bis(trifluoromethyl)-N-(2-(2-(trifluoromethyl)pyridin-4-yl)-5,6-dihydro-4H-pyrrolo[1,2-b]pyrazol-4-yl)-1H-pyrazole-4-carboxamide]"
8,< 250 nM,"O=C(N[C@H]1CCn2nc(-c3cc(C(F)(F)F)ncc3F)cc21)C1CC2(CC2)C1 [Compound I-522a, (S)—N-(2-(5-Fluoro-2-(trifluoromethyl)pyridin-4-yl)-5,6-dihydro-4H-pyrrolo[1,2-b]pyrazol-4-yl)spiro[2.3]hexane-5-carboxamide]"
9,< 250 nM,"CC1(C)CC(C(=O)N[C@H]2CCn3nc(-c4cc(C(F)(F)F)ncc4F)cc32)C1 [Compound I-523a, (S)-N-(2-(5-Fluoro-2-(trifluoromethyl)pyridin-4-yl)-5,6-dihydro-4H-pyrrolo[1,2-b]pyrazol-4-yl)-3,3-dimethylcyclobutane-1-carboxamide]"
